According to ChEMBL document CHEMBL1909046, “DrugMatrix in vitro pharmacology data”:

Columns and labels:
[1] = DRUGMATRIX: Serotonin (5-Hydroxytryptamine) 5-HT3 radioligand binding (ligand: [3H] GR-65630); type: cell membranes, Membrane; details: hek293; Not Active = under 50% inhibition at 10 µM
Endothelin-1 receptor = target: T1, Endothelin-1 receptor (Homo sapiens, UniProt P25101); type: cell membranes, Membrane; details: cho-k1; also: in other assays of this panel Not Active means under 50% inhibition at 10 µM
T1 sequence (P25101 whole entry): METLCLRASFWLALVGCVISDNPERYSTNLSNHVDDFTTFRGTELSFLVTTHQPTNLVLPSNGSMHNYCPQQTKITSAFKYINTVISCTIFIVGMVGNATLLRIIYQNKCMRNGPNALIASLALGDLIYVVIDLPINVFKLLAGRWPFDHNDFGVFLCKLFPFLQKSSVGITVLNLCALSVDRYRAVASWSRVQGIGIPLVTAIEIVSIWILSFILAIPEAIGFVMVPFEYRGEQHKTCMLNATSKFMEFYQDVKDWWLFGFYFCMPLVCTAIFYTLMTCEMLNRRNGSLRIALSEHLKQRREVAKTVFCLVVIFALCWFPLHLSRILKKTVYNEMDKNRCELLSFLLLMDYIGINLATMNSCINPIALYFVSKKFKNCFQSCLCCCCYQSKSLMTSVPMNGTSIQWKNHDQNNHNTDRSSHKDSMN

[2] = DRUGMATRIX: Purinergic P2X radioligand binding (ligand: [3H] alpha, beta-Methylene-ATP); type: cell membranes, Oryctolagus cuniculus, New Zealand albino, Urinary bladder, Membrane; details: Not Active = under 50% inhibition at 10 µM
[3] = target: Mitogen-activated protein kinase 14 (Homo sapiens, UniProt Q16539); design: species or system Escherichia coli;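 also: inhibition of p38alpha enzyme activity in a biochemical kinase assay, with myelin basic protein serving as substrate; in other assays of this panel Not Active means under 50% inhibition at 10 µM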
Sequence of Mitogen-activated protein kinase 14 (Q16539 whole entry): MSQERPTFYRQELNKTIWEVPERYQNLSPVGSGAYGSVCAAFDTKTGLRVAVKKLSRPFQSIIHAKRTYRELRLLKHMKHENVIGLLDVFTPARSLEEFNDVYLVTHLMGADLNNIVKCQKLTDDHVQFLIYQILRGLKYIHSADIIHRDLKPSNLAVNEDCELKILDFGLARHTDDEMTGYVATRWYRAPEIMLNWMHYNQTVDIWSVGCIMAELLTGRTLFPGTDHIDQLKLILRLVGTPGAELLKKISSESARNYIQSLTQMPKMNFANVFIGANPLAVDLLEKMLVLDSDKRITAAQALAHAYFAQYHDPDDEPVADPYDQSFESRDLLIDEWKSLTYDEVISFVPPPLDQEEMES

[4] = DRUGMATRIX: Sodium/nucleoside co-transporter radioligand binding (ligand: nitrobenzylthioinosine); type: cell membranes, Cavia porcellus, Dunkin-Hartley, Cerebral cortex, Membrane; details: Not Active = under 50% inhibition at 10 µM
Nitric oxide synthase 1 = Nitric oxide synthase 1 (Rattus norvegicus, UniProt P29476); type: tissue-based, Cerebellum; also: in other assays of this panel Not Active means under 50% inhibition at 10 µM
Sequence of Nitric oxide synthase 1 (P29476 whole entry): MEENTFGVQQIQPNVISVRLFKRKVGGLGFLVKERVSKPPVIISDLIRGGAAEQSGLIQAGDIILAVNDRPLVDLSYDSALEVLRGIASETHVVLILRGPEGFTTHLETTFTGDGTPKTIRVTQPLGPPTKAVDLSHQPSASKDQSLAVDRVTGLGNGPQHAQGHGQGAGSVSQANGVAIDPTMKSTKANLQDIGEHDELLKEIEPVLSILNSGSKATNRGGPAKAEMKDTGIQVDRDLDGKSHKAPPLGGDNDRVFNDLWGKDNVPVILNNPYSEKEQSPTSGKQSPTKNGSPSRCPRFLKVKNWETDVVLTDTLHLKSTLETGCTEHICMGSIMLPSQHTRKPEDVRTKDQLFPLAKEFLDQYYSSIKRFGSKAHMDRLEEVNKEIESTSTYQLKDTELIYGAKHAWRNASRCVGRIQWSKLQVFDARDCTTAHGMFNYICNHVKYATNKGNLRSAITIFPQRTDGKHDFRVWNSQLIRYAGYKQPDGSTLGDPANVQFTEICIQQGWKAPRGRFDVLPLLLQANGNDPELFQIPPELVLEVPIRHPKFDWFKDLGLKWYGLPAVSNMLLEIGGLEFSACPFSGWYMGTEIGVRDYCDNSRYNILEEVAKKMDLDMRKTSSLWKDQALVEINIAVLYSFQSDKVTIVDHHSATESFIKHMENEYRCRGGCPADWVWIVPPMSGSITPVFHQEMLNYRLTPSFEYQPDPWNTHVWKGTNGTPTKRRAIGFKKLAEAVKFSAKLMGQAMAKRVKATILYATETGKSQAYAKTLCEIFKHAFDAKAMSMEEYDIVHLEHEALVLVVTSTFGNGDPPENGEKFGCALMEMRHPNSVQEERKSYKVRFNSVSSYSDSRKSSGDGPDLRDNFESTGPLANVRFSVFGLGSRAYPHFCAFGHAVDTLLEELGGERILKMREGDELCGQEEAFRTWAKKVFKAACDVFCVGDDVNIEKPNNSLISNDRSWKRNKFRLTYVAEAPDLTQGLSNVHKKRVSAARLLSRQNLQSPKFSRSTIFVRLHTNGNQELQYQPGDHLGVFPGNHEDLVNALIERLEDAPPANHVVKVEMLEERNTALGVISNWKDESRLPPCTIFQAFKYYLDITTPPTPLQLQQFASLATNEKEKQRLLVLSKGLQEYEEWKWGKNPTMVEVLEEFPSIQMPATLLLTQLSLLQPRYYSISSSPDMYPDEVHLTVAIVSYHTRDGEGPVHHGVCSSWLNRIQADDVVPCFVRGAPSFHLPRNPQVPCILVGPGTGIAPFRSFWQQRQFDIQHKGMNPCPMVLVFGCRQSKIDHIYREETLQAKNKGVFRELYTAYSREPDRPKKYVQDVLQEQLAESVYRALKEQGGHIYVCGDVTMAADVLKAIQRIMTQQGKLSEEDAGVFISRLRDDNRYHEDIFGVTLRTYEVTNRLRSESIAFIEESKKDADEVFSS

[5] = target: T2, Muscarinic acetylcholine receptor M4 (Homo sapiens, UniProt P08173); type: cell membranes, CHO-K1, Membrane; details: cho-k1; also: in other assays of this panel Not Active means under 50% inhibition at 10 µM
T2 sequence (P08173 whole entry): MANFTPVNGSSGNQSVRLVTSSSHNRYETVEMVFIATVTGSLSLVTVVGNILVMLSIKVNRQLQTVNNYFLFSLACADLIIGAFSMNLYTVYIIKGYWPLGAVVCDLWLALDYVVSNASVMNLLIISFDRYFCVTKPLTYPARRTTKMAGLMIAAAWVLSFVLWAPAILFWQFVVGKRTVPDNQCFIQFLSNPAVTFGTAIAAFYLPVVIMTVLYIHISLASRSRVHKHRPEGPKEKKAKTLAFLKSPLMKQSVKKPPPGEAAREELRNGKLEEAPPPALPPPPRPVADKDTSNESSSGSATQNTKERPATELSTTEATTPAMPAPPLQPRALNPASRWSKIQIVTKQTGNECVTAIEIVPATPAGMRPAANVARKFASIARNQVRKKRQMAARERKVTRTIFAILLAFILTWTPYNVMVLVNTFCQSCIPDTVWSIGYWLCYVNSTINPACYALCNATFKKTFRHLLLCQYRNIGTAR

[6] = target: Tyrosine-protein kinase Fyn (Homo sapiens, UniProt P06241); assay: biochemical; type: cell-based, Insect cells; details: insect cells
Sequence of Tyrosine-protein kinase Fyn (P06241 whole entry): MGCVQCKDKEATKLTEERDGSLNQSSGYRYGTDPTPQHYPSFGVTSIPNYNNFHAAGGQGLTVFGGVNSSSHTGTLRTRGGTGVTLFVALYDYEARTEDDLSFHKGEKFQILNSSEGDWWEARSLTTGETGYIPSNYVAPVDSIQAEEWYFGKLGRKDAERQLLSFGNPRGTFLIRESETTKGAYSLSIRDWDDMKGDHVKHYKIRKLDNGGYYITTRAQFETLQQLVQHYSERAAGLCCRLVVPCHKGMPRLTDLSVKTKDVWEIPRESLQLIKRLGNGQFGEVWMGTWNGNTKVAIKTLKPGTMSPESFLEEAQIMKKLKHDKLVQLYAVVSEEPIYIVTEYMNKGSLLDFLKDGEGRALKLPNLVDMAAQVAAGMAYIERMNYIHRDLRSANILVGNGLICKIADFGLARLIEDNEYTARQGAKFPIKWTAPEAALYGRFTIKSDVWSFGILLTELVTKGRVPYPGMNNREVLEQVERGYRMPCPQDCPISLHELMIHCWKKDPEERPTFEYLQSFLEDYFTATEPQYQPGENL

[7] = DRUGMATRIX: Phosphodiesterase PDE4 enzyme inhibition (substrate: [3H]cAMP + cAMP); details: u-937; Not Active = under 50% inhibition at 10 µM
[8] = target: 5-hydroxytryptamine receptor 2B (Homo sapiens, UniProt P41595); type: cell membranes, CHO-K1, Membrane; details: cho-k1; also: in other assays of this panel Not Active means under 50% inhibition at 10 µM
Sequence of 5-hydroxytryptamine receptor 2B (P41595 whole entry): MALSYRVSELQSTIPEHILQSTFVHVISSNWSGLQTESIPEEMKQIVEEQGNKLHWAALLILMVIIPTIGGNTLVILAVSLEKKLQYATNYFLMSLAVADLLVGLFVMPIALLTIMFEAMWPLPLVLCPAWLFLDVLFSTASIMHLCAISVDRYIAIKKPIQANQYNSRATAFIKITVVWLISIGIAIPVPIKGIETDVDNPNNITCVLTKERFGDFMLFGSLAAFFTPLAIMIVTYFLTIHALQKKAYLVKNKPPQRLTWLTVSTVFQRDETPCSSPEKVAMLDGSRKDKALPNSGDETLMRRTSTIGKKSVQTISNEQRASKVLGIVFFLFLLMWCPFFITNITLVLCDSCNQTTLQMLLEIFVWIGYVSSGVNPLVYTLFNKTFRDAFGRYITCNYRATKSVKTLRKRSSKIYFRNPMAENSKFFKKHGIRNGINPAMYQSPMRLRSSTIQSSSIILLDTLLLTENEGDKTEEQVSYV

[9] = DRUGMATRIX: Glutamate, AMPA radioligand binding (ligand: [3H] AMPA); type: cell membranes, Rattus norvegicus, Wistar, Cerebral cortex, Membrane; details: Not Active = under 50% inhibition at 10 µM
Cytochrome P450 2A6 = target: T3, Cytochrome P450 2A6 (Homo sapiens, UniProt P11509); details: bti-tn-5b1-4; also: in other assays of this panel Not Active means under 50% inhibition at 10 µM
T3 sequence (P11509 whole entry): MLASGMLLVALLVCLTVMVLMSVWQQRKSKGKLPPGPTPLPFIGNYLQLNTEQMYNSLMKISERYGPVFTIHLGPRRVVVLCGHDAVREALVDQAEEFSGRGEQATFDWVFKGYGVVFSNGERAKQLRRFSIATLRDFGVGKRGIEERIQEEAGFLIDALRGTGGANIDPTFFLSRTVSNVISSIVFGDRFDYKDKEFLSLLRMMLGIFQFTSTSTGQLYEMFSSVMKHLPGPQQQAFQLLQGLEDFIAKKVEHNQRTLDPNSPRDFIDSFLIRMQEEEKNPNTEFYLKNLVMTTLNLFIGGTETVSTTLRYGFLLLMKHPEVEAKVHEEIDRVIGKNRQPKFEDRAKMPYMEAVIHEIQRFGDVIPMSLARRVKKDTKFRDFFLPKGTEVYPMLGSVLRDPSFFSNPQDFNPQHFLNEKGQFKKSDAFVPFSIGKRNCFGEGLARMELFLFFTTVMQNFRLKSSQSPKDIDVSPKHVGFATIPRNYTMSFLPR

[10] = target: 5-hydroxytryptamine receptor 6 (Homo sapiens, UniProt P50406); type: cell membranes, HeLa, Membrane; details: hela; also: in other assays of this panel Not Active means under 50% inhibition at 10 µM
Sequence of 5-hydroxytryptamine receptor 6 (P50406 whole entry): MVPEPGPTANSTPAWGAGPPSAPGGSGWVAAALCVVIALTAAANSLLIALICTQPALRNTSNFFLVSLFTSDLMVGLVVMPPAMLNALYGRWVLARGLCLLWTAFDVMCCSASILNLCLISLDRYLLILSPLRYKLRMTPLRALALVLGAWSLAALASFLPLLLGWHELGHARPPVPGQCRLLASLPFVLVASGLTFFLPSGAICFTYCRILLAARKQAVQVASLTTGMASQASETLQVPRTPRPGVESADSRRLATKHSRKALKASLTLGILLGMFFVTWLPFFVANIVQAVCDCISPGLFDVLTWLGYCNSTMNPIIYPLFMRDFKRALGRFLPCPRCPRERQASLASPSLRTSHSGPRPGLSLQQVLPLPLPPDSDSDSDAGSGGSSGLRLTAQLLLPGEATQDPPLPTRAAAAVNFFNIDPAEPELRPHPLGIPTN

[11] = target: T4, Polyunsaturated fatty acid lipoxygenase ALOX15 (Oryctolagus cuniculus, UniProt P12530); assay: biochemical; type: tissue-based, Reticulocytes; details: reticulocytes
T4 sequence (P12530 whole entry): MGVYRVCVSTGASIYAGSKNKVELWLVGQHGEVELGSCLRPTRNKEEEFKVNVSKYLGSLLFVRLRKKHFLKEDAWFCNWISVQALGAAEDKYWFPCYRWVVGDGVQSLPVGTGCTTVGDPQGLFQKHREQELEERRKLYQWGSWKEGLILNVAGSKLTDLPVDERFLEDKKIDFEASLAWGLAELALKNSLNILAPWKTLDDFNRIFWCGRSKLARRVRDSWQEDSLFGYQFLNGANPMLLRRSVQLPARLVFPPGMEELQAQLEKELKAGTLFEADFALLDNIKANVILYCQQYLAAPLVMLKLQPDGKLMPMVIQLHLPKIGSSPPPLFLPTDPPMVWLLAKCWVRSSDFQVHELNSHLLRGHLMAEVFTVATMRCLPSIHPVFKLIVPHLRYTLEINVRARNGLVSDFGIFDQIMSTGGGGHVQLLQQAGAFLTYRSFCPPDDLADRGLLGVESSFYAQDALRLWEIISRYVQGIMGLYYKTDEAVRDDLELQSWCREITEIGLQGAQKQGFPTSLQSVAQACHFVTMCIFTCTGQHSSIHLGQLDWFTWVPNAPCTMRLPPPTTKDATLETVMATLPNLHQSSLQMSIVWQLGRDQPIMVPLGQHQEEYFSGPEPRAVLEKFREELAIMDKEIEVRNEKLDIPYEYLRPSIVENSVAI

CCCC[C@@H](CC)COC(=O)c1ccccc1C(=O)OC[C@@H](CC)CCCC [BIS(2-ETHYLHEXYL)PHTHALATE]
Not Active: IC50 [1] | Ki [1] | IC50 (Endothelin-1 receptor) | IC50 [2] | Ki [2] | IC50 [3] | IC50 [4] | Ki [4] | IC50 (Nitric oxide synthase 1) | IC50 [5] | IC50 [6] | IC50 [7] | Ki [7] | IC50 [8] | IC50 [9] | Ki [9] | IC50 (Cytochrome P450 2A6) | Ki (Cytochrome P450 2A6) | IC50 [10] | IC50 [11]

CC[N+](CC)(CC)CCOc1cccc(OCC[N+](CC)(CC)CC)c1OCC[N+](CC)(CC)CC.[I-].[I-].[I-] [GALLAMINE TRIETHIODIDE]
Not Active: IC50 [1] | Ki [1] | IC50 (Endothelin-1 receptor) | IC50 [2] | Ki [2] | IC50 [3] | IC50 [4] | Ki [4] | IC50 (Nitric oxide synthase 1) | IC50 [5] | IC50 [6] | IC50 [7] | Ki [7] | IC50 [8] | IC50 [9] | Ki [9] | IC50 (Cytochrome P450 2A6) | Ki (Cytochrome P450 2A6) | IC50 [10] | IC50 [11]

CN(C)[C@@H]1C(O)=C(C(N)=O)C(=O)[C@@]2(O)C(O)=C3C(=O)c4c(O)cccc4[C@@](C)(O)[C@H]3[C@H](O)[C@@H]12 [OXYTETRACYCLINE]
Not Active: IC50 [1] | Ki [1] | IC50 (Endothelin-1 receptor) | IC50 [2] | Ki [2] | IC50 [3] | IC50 [4] | Ki [4] | IC50 (Nitric oxide synthase 1) | IC50 [5] | IC50 [6] | IC50 [7] | Ki [7] | IC50 [8] | IC50 [9] | Ki [9] | IC50 (Cytochrome P450 2A6) | Ki (Cytochrome P450 2A6) | IC50 [10] | IC50 [11]

NS(=O)(=O)c1cc2c(cc1Cl)NCNS2(=O)=O [HYDROCHLOROTHIAZIDE]
Not Active: IC50 [1] | Ki [1] | IC50 (Endothelin-1 receptor) | IC50 [2] | Ki [2] | IC50 [3] | IC50 [4] | Ki [4] | IC50 (Nitric oxide synthase 1) | IC50 [5] | IC50 [6] | IC50 [7] | Ki [7] | IC50 [8] | IC50 [9] | Ki [9] | IC50 (Cytochrome P450 2A6) | Ki (Cytochrome P450 2A6) | IC50 [10] | IC50 [11]
